{"source": "patent US20140161342A1", "about": "“DENSITY-BASED METHOD OF COMPARING IMAGES AND DETECTION OF MORPHOLOGICAL CHANGES USING THE METHOD THEREOF” (CENTRE NATIONAL DE LA RECHERCHE SCIENTIFIQUE CNRS, priority 2011, published 2014)", "assay_type_in_all_cases": "cell-based, Human", "key": {"[1]": {"test_system": "multivesicular bodies (MVB)", "experiment": "Density-based comparison of multivesicular body (MVB) morphology, CD63 stain, micropatterned RPE-1 cells", "details": "nocodazole 10 μM, 1 h at 4° C. and 1 h at 37° C., 40 cells of CG, 40 cells of TG", "experimental": "Human RPE-1 cells kept in growth medium were trypsinized and seeded on micropattern-printed coverslips as described in EP 1664266. To depolymerize microtubules, nocodazole was added to a final concentration of 10 μM to TG. TG and CG were both subsequently incubated for 1 h at 4° C. and 1 h at 37° C. Cells were fixed with 4% (wt/vol) paraformaldehyde (PFA) and proceeded for indirect immunofluorescence staining with primary α-CD63 antibodies (Invitrogen) to visualize MVB, α-GM130 antibodies to visualize the Golgi apparatus and α-Sec13 antibodies to visualize ERES as well as fluorophore-coupled secondary antibodies. 3D image stacks of n cells of each condition (TG and CG) were acquired with 100× magnification and Z-series every 0.2 μm. […] The coordinates of the segmented structures from all cells were aligned using the micropattern geometry and the coordinate sample of the TG was compared with the coordinate sample of the CG using the above-described method for each intracellular compartment analyzed.\nParts A and B of FIG. 5 illustrate representative fluorescent images of one cell from CG (designated by “Crtl”) and one cell from TG (designated by “NZ” for nocodazole) stained for MVB. […] As shown in prior art, the steady-sate three-dimensional organization of MVB is constant in micropatterned cells as analyzed here. […]"}, "Golgi apparatus": {"test_system": "Golgi apparatus", "experiment": "Density-based comparison of Golgi apparatus morphology, GM130 stain, micropatterned RPE-1 cells", "details": "nocodazole 10 μM, 15 cells of CG, 20 cells of TG", "experimental": "(§1) Human RPE-1 cells kept in growth medium were trypsinized and seeded on micropattern-printed coverslips as described in EP 1664266. To depolymerize microtubules, nocodazole was added to a final concentration of 10 μM to TG. TG and CG were both subsequently incubated for 1 h at 4° C. and 1 h at 37° C. Cells were fixed with 4% (wt/vol) paraformaldehyde (PFA) and proceeded for indirect immunofluorescence staining with primary α-CD63 antibodies (Invitrogen) to visualize MVB, α-GM130 antibodies to visualize the Golgi apparatus and α-Sec13 antibodies to visualize ERES as well as fluorophore-coupled secondary antibodies. 3D image stacks of n cells of each condition (TG and CG) were acquired with 100× magnification and Z-series every 0.2 μm. Images were deconvolved and segmented in order to detect signals that are fifteen-fold larger than noise. The coordinates of the segmented structures from all cells were aligned using the micropattern geometry and the coordinate sample of the TG was compared with the coordinate sample of the CG using the above-described method for each intracellular compartment analyzed.\nParts A and B of FIG. 6 illustrate representative fluorescent images of one cell from CG (designated by “Crtl”) and one cell from TG (designated by “NZ” for nocodazole) stained for the Golgi apparatus. […]"}, "[2]": {"test_system": "multivesicular bodies (MVB)", "experiment": "Live cell analysis of MVB in unconstrained EGFP-CD63-expressing RPE-1 cells", "details": "nocodazole 20 μM, last six time frames after addition", "experimental": "In this example, morphological changes in the steady-state organization of MVB were monitored in a time period between two instants t1 and t2 when using a drug treatment. Thus, the density-based method of the present invention is applied to life cell analysis. More precisely, MVB were analyzed in unconstrained cells before and after treatment with nocodazole, illustrating that the present invention is not limited to the comparison of constrained cells but can also apply to the comparative study of unconstrained cells.\nEGFP-CD63-expressing stable cells (generated by transfection of the plasmid pEGFP-CD63, Ostrowski et al. NATURE CELL BIOLOGY, January 2010) into RPE-1 cells and selection with 500 μg/ml geneticin) were seeded on iwaki glass base dishes (Asahi Glass) for live cell observation. To depolymerize microtubules, nocodazole (NZ) was added to a final concentration of 20 μM. […] The first two groups contained images in the absence of the drug (CG1 and CG2) and the second two groups contained images in the presence of the drug (TG1 and TG2) recorded after the addition of the drug. […]\nGroups CG1 and CG2 are non-treated control groups with 1080 and 1002 detected CD63-positive structures that were acquired before addition of the drug.\nGroups TG1 and TG2 are treated test groups containing 1019 and 801 structures that were recorded after the addition of the drug. […]"}, "[3]": {"test_system": "endoplasmic reticulum exit sites (ERES)", "experiment": "Density-based comparison of endoplasmic reticulum exit sites (ERES), Sec13 stain, micropatterned RPE-1 cells", "details": "nocodazole 10 μM, 15 cells of CG, 11 cells of TG", "experimental": "as §1\nParts A and B of FIG. 7 illustrate representative fluorescent images of one cell from CG (designated by “Crtl”) and one cell from TG (designated by “NZ” for nocodazole) stained for ERES. […]"}, "microtubules": {"test_system": "microtubules", "experiment": "Density-based comparison of microtubules (β-tubulin stain), micropatterned RPE-1 cells", "set-up": "dose or concentration left out as unconfirmed", "details": "nocodazole; 16 cells of CG, 16 cells of TG; tubulin structures", "description": "Human RPE-1 cells kept in growth medium were trypsinized and seeded on micropattern-printed coverslips as described in EP 1664266. To depolymerize microtubules, nocodazole was added to a final concentration of 10 M to TG. TG and CG were both subsequently incubated for 1 h at 4° C. and 1 h at 37° C. Cells were fixed with 4% (wt/vol) paraformaldehyde (PFA) and proceeded for indirect immunofluorescence staining with primary β-tubulin antibodies (Sigma-Aldrich) to visualize microtubules and fluorophore-coupled secondary antibodies.\n3D image stacks of n cells of each condition (TG and CG) were acquired with 100× magnification and Z-series every 0.2 m. Images were deconvolved and segmented in order to detect signals that are larger than noise. To represent continuous structures (microtubules and Rab8-marked membranes domains) by a cloud of coordinates, we “cut” them in several small structures by increasing the watershed during segmentation. The coordinates of the segmented structures from all cells were aligned using the micropattern geometry and the coordinate sample of the TG was compared with the coordinate sample of the CG using the above-described method for each intracellular compartment analyzed.\nEach coordinate stands for one fluorescent fragment. […]"}}}
{"smiles": "COC(=O)Nc1nc2ccc(C(=O)c3cccs3)cc2[nH]1", "note": "[nocodazole]", "values": [{"measurement": "P2D-value, comparison TG/CG", "setting": "[1]", "value": "1.589*10^−5"}, {"measurement": "P3D-value, comparison TG/CG", "setting": "[1]", "value": "1.280*10^−11"}, {"measurement": "P2D-value, comparison TG/CG", "setting": "Golgi apparatus", "value": "0.9524*10^−2"}, {"measurement": "P3D-value, comparison TG/CG", "setting": "Golgi apparatus", "value": "1.8741*10^−2"}, {"measurement": "P2D-value, non-treated group CG1 vs treated group TG2", "setting": "[2]", "value": "4.00*10^−6"}, {"measurement": "P3D-value, non-treated group CG1 vs treated group TG2", "setting": "[2]", "value": "4.84*10^−6"}, {"measurement": "P2D-value, comparison TG/CG", "setting": "[3]", "value": "0.3416*10^−3"}, {"measurement": "P3D-value, comparison TG/CG", "setting": "[3]", "value": "0.1118*10^−6"}, {"measurement": "P2D-value, comparison TG/CG", "setting": "microtubules", "value": "6.5862*10^−41"}, {"measurement": "P3D-value, comparison TG/CG", "setting": "microtubules", "value": "2.7758*10^−228"}]}
